Results as given in ChEMBL document CHEMBL1201862, “PubChem BioAssay data set” (2004).
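Test compounds were applied to cells in 96-well plates for 48 hours at 5 doses. Abbreviation: GI50, concentration required for 50% inhibition of growth.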 Calls of active or inactive are those of the source. No stated cut-off is given here; in the data, active = GI50 up to about 1.1 µM and inactive = higher.

Legend:
Test in all cases: DTP human tumour cell line panel, 48 h
HOP-92 = tested on: HOP-92
SK-MEL-28 = tested on: SK-MEL-28
OVCAR-5 = tested on: OVCAR-5
OVCAR-8 = tested on: OVCAR-8
COLO 205 = tested on: COLO 205
LOX IMVI = tested on: LOX IMVI
SR = tested on: SR
PC-3 = tested on: PC-3
IGROV-1 = tested on: IGROV-1
HOP-62 = tested on: HOP-62
HCT-116 = tested on: HCT-116
K562 = tested on: K562
ACHN = tested on: ACHN
BT-549 = tested on: BT-549
RXF 393 = tested on: RXF 393
NCI/ADR-RES = tested on: NCI/ADR-RES
NCI-H23 = tested on: NCI-H23
SK-MEL-2 = tested on: SK-MEL-2
SNB-75 = tested on: SNB-75
CCRF-CEM = tested on: CCRF-CEM

| SMILES | GI50 (HOP-92) | GI50 (SK-MEL-28) | GI50 (OVCAR-5) | GI50 (OVCAR-8) | GI50 (COLO 205) | GI50 (LOX IMVI) | GI50 (SR) | GI50 (PC-3) | GI50 (IGROV-1) | GI50 (HOP-62) | GI50 (HCT-116) | GI50 (K562) | GI50 (ACHN) | GI50 (BT-549) | GI50 (RXF 393) | GI50 (NCI/ADR-RES) | GI50 (NCI-H23) | GI50 (SK-MEL-2) | GI50 (SNB-75) | GI50 (CCRF-CEM) |
| --- | --- | --- | --- | --- | --- | --- | --- | --- | --- | --- | --- | --- | --- | --- | --- | --- | --- | --- | --- | --- |
| COc1cc(Cl)c(CC(=O)c2c[nH]c3ccccc23)cc1OC | 5.36 µM (inactive) | > 100 µM (inactive) | > 100 µM (inactive) | 8.55 µM (inactive) | > 100 µM (inactive) | > 100 µM (inactive) | > 100 µM (inactive) | > 100 µM (inactive) | 32.4 µM (inactive) | 5.3 µM (inactive) | 98.6 µM (inactive) | > 49.2 µM (inactive) | 8.55 µM (inactive) | 28.2 µM (inactive) | 12.3 µM (inactive) | > 81.7 µM (inactive) | > 42.5 µM (inactive) | 16.7 µM (inactive) | 8.93 µM (inactive) | > 34.6 µM (inactive) |
| O=[N+]([O-])c1ccc(CSCc2ccc(Cl)cc2)cc1 | 47.8 µM (inactive) | > 100 µM (inactive) | > 100 µM (inactive) | > 100 µM (inactive) | > 100 µM (inactive) | > 100 µM (inactive) | 23.8 µM (inactive) | > 100 µM (inactive) | > 100 µM (inactive) | > 100 µM (inactive) | 92.3 µM (inactive) | > 100 µM (inactive) | > 100 µM (inactive) | > 100 µM (inactive) | > 100 µM (inactive) | > 100 µM (inactive) | > 100 µM (inactive) | > 100 µM (inactive) | > 100 µM (inactive) | 14.5 µM (inactive) |
| Cc1c(C(=O)c2ccccc2)[n+]([O-])c2cc(Cl)c(Cl)cc2[n+]1[O-] | 2.96 µM (inactive) | 14.7 µM (inactive) | 17.9 µM (inactive) | 10 µM (inactive) | 18.1 µM (inactive) | 3.72 µM (inactive) | 1.54 µM (inactive) | 17.4 µM (inactive) | 1.97 µM (inactive) | 15.9 µM (inactive) | 13.5 µM (inactive) | 4.01 µM (inactive) | 14.3 µM (inactive) | 16.9 µM (inactive) | 6.08 µM (inactive) | 17.9 µM (inactive) | 2.39 µM (inactive) | 5.92 µM (inactive) | 0.0368 µM (active) | 19.3 µM (inactive) |
| CC1CCC2C(C)C3C(CC4C5CC=C6CC(OC7OC(CO)C(O)C(OC8OC(CO)C(O)C(O)C8O)C7OC7OC(C)C(O)C(O)C7O)CCC6(C)C5CCC43C)N2C1 (stereo not given) | 17.5 µM (inactive) | 7.94 µM (inactive) | 14.3 µM (inactive) | 15 µM (inactive) | 16.7 µM (inactive) | 15 µM (inactive) | 15.1 µM (inactive) | 14.9 µM (inactive) | 12.4 µM (inactive) | 17.3 µM (inactive) | 11.1 µM (inactive) | 16 µM (inactive) | 8.89 µM (inactive) | 16.5 µM (inactive) | 10.2 µM (inactive) | 17.9 µM (inactive) | 14.7 µM (inactive) | 19.5 µM (inactive) | 9.57 µM (inactive) | 9.66 µM (inactive) |
| CC(C)(C)OC(=O)c1ccc(NCc2cc(O)ccc2O)cc1 | 1.34 µM (inactive) | 2.03 µM (inactive) | 6.58 µM (inactive) | 2.13 µM (inactive) | 2.08 µM (inactive) | 3.88 µM (inactive) | 0.916 µM (active) | 1.5 µM (inactive) | 1.77 µM (inactive) | 8.97 µM (inactive) | 3.49 µM (inactive) | 2.03 µM (inactive) | 1.73 µM (inactive) | 2 µM (inactive) | 1.36 µM (inactive) | 1.73 µM (inactive) | 4.93 µM (inactive) | 4.34 µM (inactive) | 3.4 µM (inactive) | 0.363 µM (active) |
| Cc1cc(Cc2c(F)c(F)c(C(c3cc(C)no3)c3c(F)c(F)c(F)c(F)c3F)c(F)c2F)on1 (stereo not given) | > 100 µM (inactive) | > 38.8 µM (inactive) | > 100 µM (inactive) | > 100 µM (inactive) | > 100 µM (inactive) | > 46.1 µM (inactive) | > 25.7 µM (inactive) | 69.5 µM (inactive) | > 100 µM (inactive) | > 100 µM (inactive) | 18.3 µM (inactive) | 9.46 µM (inactive) | > 100 µM (inactive) | > 100 µM (inactive) | 2.34 µM (inactive) | > 28.2 µM (inactive) | > 100 µM (inactive) | 9.71 µM (inactive) | 86.7 µM (inactive) | 62.7 µM (inactive) |
| CCOC(=O)C#Cc1ccc(C#CC(=O)OCC)cc1 | 5.69 µM (inactive) | 2.84 µM (inactive) | 11.8 µM (inactive) | 3.49 µM (inactive) | 6.21 µM (inactive) | 3.03 µM (inactive) | 0.604 µM (active) | 6.85 µM (inactive) | 1.72 µM (inactive) | 3.81 µM (inactive) | 1.7 µM (inactive) | 2 µM (inactive) | 3.45 µM (inactive) | 3.95 µM (inactive) | 2.62 µM (inactive) | 6.43 µM (inactive) | 3.69 µM (inactive) | 0.421 µM (active) | 0.0381 µM (active) | 1.66 µM (inactive) |
